Results from patent US20240067632A1, “WEE1 Degrading Compounds and Uses Thereof” (Bristol-Myers Squibb Company, priority 2022, published 2024).
pEC50: −log10 of the molar value. Where two headings read alike, the source gives them in different places.

Tests used:
[1] = target: T1, WEE1 (Homo sapiens, UniProt P30291+Q96SW2); assay: WEE1-ePL degradation assay (LentiX-WEE1-ePL-GSPT1-ND cells, InCELL Hunter luminescence, 4 h); format: cell-based; settings: 293T-LentiX WEE1-ePL cells; for DC50: read-out: 293T-LentiX WEE1-ePL Degradation 4 hr (EC50)
T1 construct: C-terminal ePL-tagged (DiscoverX, Fremont, CA) full-length WEE1 expression construct; expressed in transfected cells; host or cells: LentiX-HEK293T (Invitrogen), lentiviral transduction; co-expressing GSPT1-GN (G576N, lacking the first 158 amino acids)
In short: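 HEK293T cells stably expressing C-terminal ePL-tagged full-length WEE1, 2500 cells/well, treated 4 h at 37° C with a 10-point 3-fold series from 1 or 10 uM. Remaining WEE1-ePL read by InCELL Hunter luminescence after 30 min. EC50 came from a four-parameter logistic fit, with Ymax set from DMSO control.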

[2] = system: MKN45 cells; assay: MKN45 cell proliferation assay (Cell-Titer-Glo, 120 h); format: cell-based; settings: for pEC50: Homo sapiens, MKN-45, 120 h, Cell-Titer-Glo, read-out: MKN45 Cell Prolif. 120 hr (EC50); for MKN45 Cell Prolif. 120 hr (Ymin-Obs): minimal percent of DMSO control observed in the concentrations tested
In short: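 Growth inhibition was read as blank-corrected Cell-Titer-Glo luminescence expressed as percent DMSO control after 120 h at 37 C, 400 cells/well. Compounds tested in triplicate as 10-point half-log series from 1 or 10 uM, 0.1% DMSO; four-parameter fit gave EC50, and lowest observed percent control was reported as Ymin-obs.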

[3] = lower limit of the fit (Ymin=0 luciferase inhibitor, Ymax DMSO control)
[4] = lower limit of the fit (0 = luciferase inhibitor, Ymax = DMSO control)

Row | Structure (SMILES) | 293T-LentiX WEE1-ePL Degradation 4 hr (Ymin) [1, 3] | DC50 [1] | pEC50 [2] | MKN45 Cell Prolif. 120 hr (Ymin-Obs) [2] | 293T-LentiX WEE1-ePL Degradation 4 hr (Ymin) [1, 4] | pEC50 ([2]; growth inhibition)
1 | O=C1CC[C@H](N2Cc3cc(O[C@H]4CCN(Cc5cc(C(F)(F)F)c6nc(N7CCOCC7)ncc6c5)C4)ccc3C2=O)C(=O)N1 [(3S)-3-(5-{[(3S)-1-{[2-(morpholin-4-yl)-8-(trifluoromethyl)quinazolin-6-yl]methyl}pyrrolidin-3-yl]oxy}-1-oxo-2,3-dihydro-1H-isoindol-2-yl)piperidine-2,6-dione] | 33.06 | 1.8 nM | 8.05 | 3.502 |  | 
2 | O=C1CC[C@H](N2Cc3cc(O[C@H]4CCN(Cc5ccc6nc(N7CCOCC7)ncc6c5)C4)ccc3C2=O)C(=O)N1 [(3S)-3-(5-{[(3S)-1-{[2-(morpholin-4-yl)quinazolin-6-yl]methyl}pyrrolidin-3-yl]oxy}-1-oxo-2,3-dihydro-1H-isoindol-2-yl)piperidine-2,6-dione] |  | 7.36 nM |  | 11.86 | 34 | 7.93
3 | O=C1CC[C@H](N2Cc3cc(O[C@H]4CCN(Cc5ccc6nc(N7CCOCC7)ccc6c5)C4)ccc3C2=O)C(=O)N1 [(3S)-3-(5-{[(3S)-1-{[2-(morpholin-4-yl)quinolin-6-yl]methyl}pyrrolidin-3-yl]oxy}-1-oxo-2,3-dihydro-1H-isoindol-2-yl)piperidine-2,6-dione] |  | 1.83 nM |  | 14.56 | 34.59 | 8.01
4 | O=C1CC[C@H](N2Cc3cc(O[C@H]4CCN(Cc5cc(C6COC6)c6nc(C7CCOCC7)ccc6c5)C4)ccc3C2=O)C(=O)N1 [(3S)-3-(5-{[(3S)-1-{[2-(oxan-4-yl)-8-(oxetan-3-yl)quinolin-6-yl]methyl}pyrrolidin-3-yl]oxy}-1-oxo-2,3-dihydro-1H-isoindol-2-yl)piperidine-2,6-dione] | 88.43 |  | 8.53 | 96.91 |  | 
5 | O=C1CC[C@H](N2Cc3cc(O[C@H]4CCN(Cc5cc(C(F)(F)F)c6nc(C7CCOCC7)ccc6c5)C4)ccc3C2=O)C(=O)N1 [(3S)-3-(5-{[(3S)-1-{[2-(oxan-4-yl)-8-(trifluoromethyl)quinolin-6-yl]methyl}pyrrolidin-3-yl]oxy}-1-oxo-2,3-dihydro-1H-isoindol-2-yl)piperidine-2,6-dione] | 42.83 | 2.48 nM | 8.52 | 2.25 |  | 
6 | O=C1CC[C@H](N2Cc3cc(O[C@H]4CCN(Cc5ccc6nc(C7CCOCC7)ncc6c5)C4)ccc3C2=O)C(=O)N1 [(3S)-3-(5-{[(3S)-1-{[2-(oxan-4-yl)quinazolin-6-yl]methyl}pyrrolidin-3-yl]oxy}-1-oxo-2,3-dihydro-1H-isoindol-2-yl)piperidine-2,6-dione] |  | 75 nM |  | 9.327 | 32.12 | 7.53
7 | O=C1CC[C@H](N2Cc3cc(O[C@H]4CCN(Cc5ccc6nc(C7CCOCC7)ccc6c5)C4)ccc3C2=O)C(=O)N1 [(3S)-3-(5-{[(3S)-1-{[2-(oxan-4-yl)quinolin-6-yl]methyl}pyrrolidin-3-yl]oxy}-1-oxo-2,3-dihydro-1H-isoindol-2-yl)piperidine-2,6-dione] |  | 1.62 nM |  | 10.43 | 31.9 | 8.51
8 | O=C1CC[C@H](N2Cc3cc(O[C@H]4CCN(Cc5ccc6nc(N7CCOCC7)ncc6c5Cl)C4)ccc3C2=O)C(=O)N1 [(3S)-3-(5-{[(3S)-1-{[5-chloro-2-(morpholin-4-yl)quinazolin-6-yl]methyl}pyrrolidin-3-yl]oxy}-1-oxo-2,3-dihydro-1H-isoindol-2-yl)piperidine-2,6-dione] | 28.46 | 3.58 nM | 7.74 | 17.49 |  | 
9 | O=C1CC[C@H](N2Cc3cc(O[C@H]4CCN(Cc5ccc6nc(C7CCOCC7)ccc6c5F)C4)ccc3C2=O)C(=O)N1 [(3S)-3-(5-{[(3S)-1-{[5-fluoro-2-(oxan-4-yl)quinolin-6-yl]methyl}pyrrolidin-3-yl]oxy}-1-oxo-2,3-dihydro-1H-isoindol-2-yl)piperidine-2,6-dione] |  | 0.306 nM |  | 12.14 | 34.42 | 8.68
10 | O=C1CC[C@H](N2Cc3cc(O[C@H]4CCN(Cc5cc6ccc(C7CCOCC7)cc6cn5)C4)ccc3C2=O)C(=O)N1 [(3S)-3-(5-{[(3S)-1-{[7-(oxan-4-yl)isoquinolin-3-yl]methyl}pyrrolidin-3-yl]oxy}-1-oxo-2,3-dihydro-1H-isoindol-2-yl)piperidine-2,6-dione] |  | 0.844 nM |  | 8.913 | 33.42 | 8.74
11 | O=C1CC[C@H](N2Cc3cc(O[C@H]4CCN(Cc5cc6cnc(N7CCOCC7)nc6cc5F)C4)ccc3C2=O)C(=O)N1 [(3S)-3-(5-{[(3S)-1-{[7-fluoro-2-(morpholin-4-yl)quinazolin-6-yl]methyl}pyrrolidin-3-yl]oxy}-1-oxo-2,3-dihydro-1H-isoindol-2-yl)piperidine-2,6-dione] | 36.02 | 14.7 nM | 7.82 | 10.84 |  | 
12 | CC(C)(O)c1cc(CN2CC[C@H](Oc3ccc4c(c3)CN([C@H]3CCC(=O)NC3=O)C4=O)C2)cc2ccc(C3CCOCC3)nc12 [(3S)-3-(5-{[(3S)-1-{[8-(2-hydroxypropan-2-yl)-2-(oxan-4-yl)quinolin-6-yl]methyl}pyrrolidin-3-yl]oxy}-1-oxo-2,3-dihydro-1H-isoindol-2-yl)piperidine-2,6-dione] | 53.75 | 6.72 nM | 6.78 | 75.97 |  | 
13 | O=C1CC[C@H](N2Cc3cc(O[C@H]4CCN(Cc5cc(N6CCC6)c6nc(C7CCOCC7)ccc6c5)C4)ccc3C2=O)C(=O)N1 [(3S)-3-(5-{[(3S)-1-{[8-(azetidin-1-yl)-2-(oxan-4-yl)quinolin-6-yl]methyl}pyrrolidin-3-yl]oxy}-1-oxo-2,3-dihydro-1H-isoindol-2-yl)piperidine-2,6-dione] | 33.36 | 26 nM | 7.97 | 3.155 |  | 
14 | O=C1CC[C@H](N2Cc3cc(O[C@H]4CCN(Cc5cc(Cl)c6nc(N7CCOCC7)ncc6c5)C4)ccc3C2=O)C(=O)N1 [(3S)-3-(5-{[(3S)-1-{[8-chloro-2-(morpholin-4-yl)quinazolin-6-yl]methyl}pyrrolidin-3-yl]oxy}-1-oxo-2,3-dihydro-1H-isoindol-2-yl)piperidine-2,6-dione] | 38.34 | 2.88 nM | 7.96 | 12.54 |  | 
15 | O=C1CC[C@H](N2Cc3cc(O[C@H]4CCN(Cc5cc(Cl)c6nc(C7CCOCC7)ccc6c5)C4)ccc3C2=O)C(=O)N1 [(3S)-3-(5-{[(3S)-1-{[8-chloro-2-(oxan-4-yl)quinolin-6-yl]methyl}pyrrolidin-3-yl]oxy}-1-oxo-2,3-dihydro-1H-isoindol-2-yl)piperidine-2,6-dione] | 29.99 | 1.1 nM | 8.35 | 10.22 |  | 
16 | O=C1CC[C@H](N2Cc3cc(O[C@H]4CCN(Cc5cc(C6CC6)c6nc(N7CCOCC7)ncc6c5)C4)ccc3C2=O)C(=O)N1 [(3S)-3-(5-{[(3S)-1-{[8-cyclopropyl-2-(morpholin-4-yl)quinazolin-6-yl]methyl}pyrrolidin-3-yl]oxy}-1-oxo-2,3-dihydro-1H-isoindol-2-yl)piperidine-2,6-dione] | 42.1 | 2.5 nM | 8.64 | 2.136 |  | 
17 | O=C1CC[C@H](N2Cc3cc(O[C@H]4CCN(Cc5cc(C6CC6)c6nc(C7CCOCC7)ccc6c5)C4)ccc3C2=O)C(=O)N1 [(3S)-3-(5-{[(3S)-1-{[8-cyclopropyl-2-(oxan-4-yl)quinolin-6-yl]methyl}pyrrolidin-3-yl]oxy}-1-oxo-2,3-dihydro-1H-isoindol-2-yl)piperidine-2,6-dione] | 54.54 | 2.58 nM | 9.80 | 3.047 |  | 
18 | O=C1CC[C@H](N2Cc3cc(O[C@H]4CCN(Cc5cc(F)c6nc(N7CCOCC7)ncc6c5)C4)ccc3C2=O)C(=O)N1 [(3S)-3-(5-{[(3S)-1-{[8-fluoro-2-(morpholin-4-yl)quinazolin-6-yl]methyl}pyrrolidin-3-yl]oxy}-1-oxo-2,3-dihydro-1H-isoindol-2-yl)piperidine-2,6-dione] | 32.63 | 3.13 nM | 8.12 | 10.25 |  | 
19 | O=C1CC[C@H](N2Cc3cc(O[C@H]4CCN(Cc5cc(F)c6nc(C7CCOCC7)ncc6c5)C4)ccc3C2=O)C(=O)N1 [(3S)-3-(5-{[(3S)-1-{[8-fluoro-2-(oxan-4-yl)quinazolin-6-yl]methyl}pyrrolidin-3-yl]oxy}-1-oxo-2,3-dihydro-1H-isoindol-2-yl)piperidine-2,6-dione] | 33.6 | 27.6 nM | 7.87 | 9.241 |  | 
